Measurements taken from PubChem BioAssay (NCI).
“And” between values parts separate entries of the source, which are not always exact repeats. Equal entries are not always repeated.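 Assay format: 96-well plates, 48-hour exposure. GI50: concentration for 50% inhibition of growth. TGI is the concentration that stops growth completely.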

Tests used:
Assay in all cases: NCI tumour cell line growth inhibition, 48 h
UACC-257 melanoma = test system: UACC-257 melanoma
HOP-92 NSCLC = test system: HOP-92 NSCLC
M14 melanoma = test system: M14 melanoma
HT29 colon = test system: HT29 colon
SK-OV-3 ovarian = test system: SK-OV-3 ovarian
UO-31 renal = test system: UO-31 renal
K-562 leukemia = test system: K-562 leukemia
BT-549 breast = test system: BT-549 breast
A498 renal = test system: A498 renal
HL-60(TB) leukemia = test system: HL-60(TB) leukemia
MOLT-4 leukemia = test system: MOLT-4 leukemia

SMILES	TGI (UACC-257 melanoma) [µM]	TGI (HOP-92 NSCLC)	TGI (M14 melanoma) [µM]	TGI (HT29 colon) [µM]	TGI (SK-OV-3 ovarian) [µM]	TGI (UO-31 renal)	TGI (K-562 leukemia) [µM]	TGI (BT-549 breast) [µM]	TGI (A498 renal) [µM]	TGI (HL-60(TB) leukemia) [µM]	TGI (MOLT-4 leukemia) [µM]	GI50 (UACC-257 melanoma) [µM]	GI50 (HOP-92 NSCLC) [µM]	GI50 (M14 melanoma) [µM]	GI50 (HT29 colon) [µM]	GI50 (SK-OV-3 ovarian) [µM]	GI50 (UO-31 renal) [µM]	GI50 (K-562 leukemia) [µM]	GI50 (BT-549 breast) [µM]	GI50 (A498 renal) [µM]
Nc1c(S(=O)(=O)O)cc(S(=O)(=O)O)c2ccc(N=Nc3ccccc3)c(O)c12	> 100	> 100 µM	> 100	> 100	> 100	> 100 µM	> 100	> 100	> 100	> 100	–	–	–	–	–	–	–	–	–	–
Cc1cn(CC(=S)NCCc2c[nH]c3ccccc23)c(=O)[nH]c1=O	–	> 100 µM	> 100	> 100	> 100	> 100 µM	> 100	> 100	> 100	> 100	> 100	–	–	–	–	–	–	–	–	–
CC1CC(C)(O)C2C3(C)CCCC2(COC3=O)C12CCC1(CCOC1=O)O2 (centres undefined)	> 250	> 250 µM	–	> 250	> 250	> 250 µM	> 250	–	248	> 250	> 250	–	–	–	–	–	–	–	–	–
CC(=O)NC1C(OCc2ccccc2)OC(CO)C(O)C1OCC(=O)NC(C(=O)NC(CCC(=O)NCCCCCC(=O)Nc1ccc2c(c1)CN1C(=O)c3ccccc3C1=N2)C(N)=O)C(C)C (centres undefined)	66.7	> 100 µM	> 100	> 100	44.6	> 100 µM	> 100	48.1	73.7	> 100	> 100	–	–	–	–	–	–	–	–	–
Cc1ccc(C(=O)NC2C(=O)NC(C(C)C)C(=O)N3CCCC3C(=O)N(C)CC(=O)N(C)C(C(C)C)C(=O)OC2C)c2c1Oc1c(c(C(=O)NC3C(=O)NC(C(C)C)C(=O)N4CCCC4C(=O)N(C)CC(=O)N(C)C(C(C)C)C(=O)OC3C)c3nc(-c4ccccc4)c(=O)oc3c1C)N2 (centres undefined)	0.122	0.156 µM and 0.0741 µM	–	–	16.1	0.194 µM and 0.122 µM	–	0.0224	0.00273	0.557	0.0314	–	–	–	–	–	–	–	–	–
c1ccc(-c2cc3nc4ccccc4nc3cc(-c3ccccc3)[nH][nH]2)cc1	> 100	> 100 µM	> 100	> 100	39.5	> 100 µM	> 100	> 100	55.7	53.5	> 100	–	–	–	–	–	–	–	–	–
C=C1N(C)c2ccc(S(=O)(=O)c3ccc4c(c3)C(C)(C)C(=C)N4C)cc2C1(C)C	> 100	41.1 µM	> 100	> 100	> 100	> 100 µM	–	87.9	> 100	> 100	91.7	–	–	–	–	–	–	–	–	–
COC(=O)[C@]12CC[C@H]3CN(S(=O)(=O)c4ccc(C)cc4)[C@H]([C@H]31)[C@H](c1ccco1)N2S(=O)(=O)c1ccc(C)cc1	81.1	62.8 µM	92.4	> 100	> 100	> 100 µM	> 100	91.6	> 100	91.5	> 100	–	–	–	–	–	–	–	–	–
C[C@@]12CC[C@@H](O)C[C@@H]1CC[C@H]1[C@H]2CC[C@@]2(C)[C@H](c3ccc(=O)oc3)CC[C@@]12O	0.0467	0.0571 µM	0.0564	0.0467	0.0451	0.0147 µM	0.0309	0.0104	0.0445	–	–	< 0.0135	< 0.01	< 0.01	< 0.01	< 0.0118	< 0.01	< 0.01	< 0.01	< 0.01
C/C=C\C1OC1(C)c1cc(=O)c2c(C)cc3c(c2o1)C(=O)c1c(O)c(C2CC(C)(N(C)C)C(OC(C)=O)C(C)O2)cc(C2CC(N(C)C)C(O)C(C)O2)c1C3=O (centres undefined)	0.0366	0.0251 µM	0.00653	1.93	0.0498	0.0106 µM	0.135	0.0221	0.0215	–	0.049	–	–	–	–	–	–	–	–	–
CCn1c2ccccc2c2ccc(C3C4C(=O)N(c5cccc6ccccc56)C(=O)C4ON3C(C(N)=O)c3ccccc3)cc21 (centres undefined)	> 25	> 25 µM	> 25	> 25	> 25	> 25 µM	> 25	> 25	6.96	> 25	> 25	–	–	–	–	–	–	–	–	–
CCCCCCC(=O)OC[n+]1ccc(-c2c(COC(=O)NC(C)C)c(COC(=O)NC(C)C)c3n2CCC3)cc1	> 100	> 100 µM	> 100	> 100	> 100	> 100 µM	> 100	> 100	> 94.2	> 71.4	> 94.3	–	–	–	–	–	–	–	–	–
C/C(=C\[Si](C)(C)c1ccco1)C(C)(O)[C@H](C)O (some centres undefined)	96.3	> 100 µM	> 100	> 100	> 100	–	> 100	–	> 100	> 100	> 100	–	–	–	–	–	–	–	–	–
CC(C)CC(N)C(=O)NC(CNC(CCC(N)=O)C(=O)NC(CC(C)C)C(=O)NC(CC(C)C)C(=O)O)Cc1ccc2ccccc2c1 (centres undefined)	> 10	> 10 µM	> 10	> 10	> 10	> 10 µM	> 10	> 10	> 10	> 10	> 10	–	–	–	–	–	–	–	–	–
CCCCCCCCCCCCCCCCCCN(C)CC(COC)OP(=O)([O-])OCC[N+](C)(C)C (centres undefined)	22.7	3.33 µM	15	4.66	25.1	20.2 µM	40.2	6.75	14	8.53	11	–	–	–	–	–	–	–	–	–
C=C(C)[C@@H]1CC[C@]2(C(=O)O)CC[C@]3(C)[C@H](CC[C@@H]4[C@@]5(C)C/C(=C/c6ccco6)C(=O)C(C)(C)[C@@H]5CC[C@]43C)[C@@H]12	> 100	–	–	> 100	–	–	–	–	–	–	–	3.12	–	–	3.05	–	–	–	–	–
O=C(O)C1=C(CO)Oc2cc3c(cc2C1c1ccc2c(c1)OCO2)OCO3 (centres undefined)	> 100	> 100 µM	> 100	> 100	> 100	> 100 µM	> 100	–	–	> 100	> 100	–	–	–	–	–	–	–	–	–
